{"source": "paper PMC10700596", "about": "(Nature Communications, 2023)", "assay": "in vivo", "type": "in vivo, mice", "conditions": "mice; for concentration at 5 min / concentration at 15 min / concentration at 30 min / concentration at 60 min / concentration at 120 min / concentration at 240 min / concentration at 360 min / concentration at 480 min / concentration at 1440 min / CSF concentration, Final (individual sample) / Brain concentration, Final (individual sample) / Plasma concentration, Final (individual sample): 10 mg/kg, IP 10 mg/kg", "note": "Several values for one entry are separate records, joined by “and”; a condition that tells them apart may be missing. Equal values may be shown once. Read-outs that look alike come from different tables or passages of the source.", "data": [{"compound": "CCc1nc2c(C)nc(C)cc2n1-c1ccc(CCNC(=O)NS(=O)(=O)c2ccc(C)cc2)cc1", "note": "[Grapiprant, reference compound]", "values": [{"measurement": "concentration at 5 min", "setting": "male, CD-1, mouse, CSF, ip, CSF, 5 min, mean of 3, read-out: CSF concentration C (mean)", "value": 9.11, "unit": "ng/mL"}, {"measurement": "concentration at 15 min", "setting": "male, CD-1, mouse, CSF, ip, CSF, 15 min, individual animals, read-out: CSF concentration, Final (individual sample)", "value": 1.21, "unit": "ng/mL"}, {"measurement": "concentration at 15 min", "setting": "male, CD-1, mouse, CSF, ip, CSF, 15 min, mean of 3, read-out: CSF concentration C (mean)", "value": 1.7, "unit": "ng/mL"}, {"measurement": "concentration at 30 min", "setting": "male, CD-1, mouse, CSF, ip, CSF, 30 min, mean of 3, read-out: CSF concentration C (mean)", "value": 3.94, "unit": "ng/mL"}, {"measurement": "concentration at 60 min", "setting": "male, CD-1, mouse, CSF, ip, CSF, 60 min, mean of 3, read-out: CSF concentration C (mean)", "value": 0.35, "unit": "ng/mL"}, {"measurement": "concentration at 120 min", "setting": "male, CD-1, mouse, CSF, ip, CSF, 120 min, mean of 3, read-out: CSF concentration C (mean)", "value": 1.36, "unit": "ng/mL"}, {"measurement": "concentration at 240 min", "setting": "male, CD-1, mouse, CSF, ip, CSF, 240 min, individual animals, read-out: CSF concentration, Final (individual sample)", "value": 0, "unit": "ng/mL"}, {"measurement": "concentration at 240 min", "setting": "male, CD-1, mouse, CSF, ip, CSF, 240 min, mean of 3, read-out: CSF concentration C (mean)", "value": 0, "unit": "ng/mL"}, {"measurement": "concentration at 360 min", "setting": "male, CD-1, mouse, CSF, ip, CSF, 360 min, individual animals, read-out: CSF concentration, Final (individual sample)", "value": 0, "unit": "ng/mL"}, {"measurement": "concentration at 360 min", "setting": "male, CD-1, mouse, CSF, ip, CSF, 360 min, mean of 3, read-out: CSF concentration C (mean)", "value": 0, "unit": "ng/mL"}, {"measurement": "concentration at 480 min", "setting": "male, CD-1, mouse, CSF, ip, CSF, 480 min, mean of 3, read-out: CSF concentration C (mean)", "value": 0.4, "unit": "ng/mL"}, {"measurement": "concentration at 1440 min", "setting": "male, CD-1, mouse, CSF, ip, CSF, individual animals, read-out: CSF concentration, Final (individual sample)", "value": 0, "unit": "ng/mL"}, {"measurement": "concentration at 1440 min", "setting": "male, CD-1, mouse, CSF, ip, CSF, mean of 3, read-out: CSF concentration C (mean)", "value": 0, "unit": "ng/mL"}, {"measurement": "concentration at 5 min", "setting": "male, CD-1, mouse, brain, ip, brain, 5 min, individual animals, read-out: Brain concentration, Final (individual sample)", "value": 20.4, "unit": "ng/g"}, {"measurement": "concentration at 5 min", "setting": "male, CD-1, mouse, brain, ip, brain, 5 min, mean of 3, read-out: Brain concentration C (mean)", "value": 21.9, "unit": "ng/g"}, {"measurement": "concentration at 15 min", "setting": "male, CD-1, mouse, brain, ip, brain, 15 min, mean of 3, read-out: Brain concentration C (mean)", "value": 14.9, "unit": "ng/g"}, {"measurement": "concentration at 30 min", "setting": "male, CD-1, mouse, brain, ip, brain, 30 min, individual animals, read-out: Brain concentration, Final (individual sample)", "value": 11.3, "unit": "ng/g"}, {"measurement": "concentration at 30 min", "setting": "male, CD-1, mouse, brain, ip, brain, 30 min, mean of 3, read-out: Brain concentration C (mean)", "value": 11.1, "unit": "ng/g"}, {"measurement": "concentration at 60 min", "setting": "male, CD-1, mouse, brain, ip, brain, 60 min, mean of 3, read-out: Brain concentration C (mean)", "value": 6.66, "unit": "ng/g"}, {"measurement": "concentration at 120 min", "setting": "male, CD-1, mouse, brain, ip, brain, 120 min, individual animals, read-out: Brain concentration, Final (individual sample)", "value": 0, "unit": "ng/g"}, {"measurement": "concentration at 120 min", "setting": "male, CD-1, mouse, brain, ip, brain, 120 min, mean of 3, read-out: Brain concentration C (mean)", "value": 0, "unit": "ng/g"}, {"measurement": "concentration at 240 min", "setting": "male, CD-1, mouse, brain, ip, brain, 240 min, individual animals, read-out: Brain concentration, Final (individual sample)", "value": 0, "unit": "ng/g"}, {"measurement": "concentration at 240 min", "setting": "male, CD-1, mouse, brain, ip, brain, 240 min, mean of 3, read-out: Brain concentration C (mean)", "value": 0, "unit": "ng/g"}, {"measurement": "concentration at 360 min", "setting": "male, CD-1, mouse, brain, ip, brain, 360 min, individual animals, read-out: Brain concentration, Final (individual sample)", "value": 0, "unit": "ng/g"}, {"measurement": "concentration at 360 min", "setting": "male, CD-1, mouse, brain, ip, brain, 360 min, mean of 3, read-out: Brain concentration C (mean)", "value": 0, "unit": "ng/g"}, {"measurement": "concentration at 480 min", "setting": "male, CD-1, mouse, brain, ip, brain, 480 min, individual animals, read-out: Brain concentration, Final (individual sample)", "value": 0, "unit": "ng/g"}, {"measurement": "concentration at 480 min", "setting": "male, CD-1, mouse, brain, ip, brain, 480 min, mean of 3, read-out: Brain concentration C (mean)", "value": 0, "unit": "ng/g"}, {"measurement": "concentration at 1440 min", "setting": "male, CD-1, mouse, brain, ip, brain, individual animals, read-out: Brain concentration, Final (individual sample)", "value": 0, "unit": "ng/g"}, {"measurement": "concentration at 1440 min", "setting": "male, CD-1, mouse, brain, ip, brain, mean of 3, read-out: Brain concentration C (mean)", "value": 0, "unit": "ng/g"}, {"measurement": "concentration at 5 min", "setting": "male, CD-1, mouse, plasma, ip, plasma, 5 min, individual animals, read-out: Plasma concentration, Final (individual sample)", "value": 546, "unit": "ng/mL"}, {"measurement": "concentration at 5 min", "setting": "male, CD-1, mouse, plasma, ip, plasma, 5 min, mean of 3, read-out: Plasma concentration C (mean)", "value": 609, "unit": "ng/mL"}, {"measurement": "concentration at 15 min", "setting": "male, CD-1, mouse, plasma, ip, plasma, 15 min, mean of 3, read-out: Plasma concentration C (mean)", "value": 834, "unit": "ng/mL"}, {"measurement": "concentration at 30 min", "setting": "male, CD-1, mouse, plasma, ip, plasma, 30 min, mean of 3, read-out: Plasma concentration C (mean)", "value": 734, "unit": "ng/mL"}, {"measurement": "concentration at 60 min", "setting": "male, CD-1, mouse, plasma, ip, plasma, 60 min, mean of 3, read-out: Plasma concentration C (mean)", "value": 393, "unit": "ng/mL"}, {"measurement": "concentration at 120 min", "setting": "male, CD-1, mouse, plasma, ip, plasma, 120 min, mean of 3, read-out: Plasma concentration C (mean)", "value": 304, "unit": "ng/mL"}, {"measurement": "concentration at 240 min", "setting": "male, CD-1, mouse, plasma, ip, plasma, 240 min, mean of 3, read-out: Plasma concentration C (mean)", "value": 31.1, "unit": "ng/mL"}, {"measurement": "concentration at 360 min", "setting": "male, CD-1, mouse, plasma, ip, plasma, 360 min, mean of 3, read-out: Plasma concentration C (mean)", "value": 11.2, "unit": "ng/mL"}, {"measurement": "concentration at 480 min", "setting": "male, CD-1, mouse, plasma, ip, plasma, 480 min, individual animals, read-out: Plasma concentration, Final (individual sample)", "value": 0, "unit": "ng/mL"}, {"measurement": "concentration at 480 min", "setting": "male, CD-1, mouse, plasma, ip, plasma, 480 min, mean of 3, read-out: Plasma concentration C (mean)", "value": 0, "unit": "ng/mL"}, {"measurement": "concentration at 1440 min", "setting": "male, CD-1, mouse, plasma, ip, plasma, individual animals, read-out: Plasma concentration, Final (individual sample)", "value": 0, "unit": "ng/mL"}, {"measurement": "concentration at 1440 min", "setting": "male, CD-1, mouse, plasma, ip, plasma, mean of 3, read-out: Plasma concentration C (mean)", "value": 0, "unit": "ng/mL"}, {"measurement": "Cmax", "setting": "male, CD-1, mouse, plasma, ip, 10 mg/kg i.p.", "value": 834, "unit": "ng/mL"}, {"measurement": "AUC", "setting": "male, CD-1, mouse, plasma, ip, 10 mg/kg i.p., read-out: plasma AUC (converted)", "value": 1340, "unit": "ng·h/mL"}, {"measurement": "CSF concentration, Final (individual sample)", "setting": "CSF, 5 min, individual animals", "value": "0 ng/mL and 11.4 ng/mL and 16.0 ng/mL"}, {"measurement": "CSF concentration, Final (individual sample)", "setting": "CSF, 15 min, individual animals", "value": "2.26 ng/mL and 1.62 ng/mL"}, {"measurement": "CSF concentration, Final (individual sample)", "setting": "CSF, 30 min, individual animals", "value": "2.31 ng/mL and 1.36 ng/mL and 8.16 ng/mL"}, {"measurement": "CSF concentration, Final (individual sample)", "setting": "CSF, 60 min, individual animals", "value": "1.05 ng/mL and 0 ng/mL"}, {"measurement": "CSF concentration, Final (individual sample)", "setting": "CSF, 120 min, individual animals", "value": "4.07 ng/mL and 0 ng/mL"}, {"measurement": "CSF concentration, Final (individual sample)", "setting": "CSF, 480 min, individual animals", "value": "1.20 ng/mL and 0 ng/mL"}, {"measurement": "Brain concentration, Final (individual sample)", "setting": "brain, 5 min, individual animals", "value": "29.4 ng/g and 15.9 ng/g"}, {"measurement": "Brain concentration, Final (individual sample)", "setting": "brain, 15 min, individual animals", "value": "15.1 ng/g and 20.3 ng/g and 9.28 ng/g"}, {"measurement": "Brain concentration, Final (individual sample)", "setting": "brain, 30 min, individual animals", "value": "9.04 ng/g and 12.8 ng/g"}, {"measurement": "Brain concentration, Final (individual sample)", "setting": "brain, 60 min, individual animals", "value": "7.24 ng/g and 0 ng/g and 12.8 ng/g"}, {"measurement": "Plasma concentration, Final (individual sample)", "setting": "plasma, 5 min, individual animals", "value": "525 ng/mL and 757 ng/mL"}, {"measurement": "Plasma concentration, Final (individual sample)", "setting": "plasma, 15 min, individual animals", "value": "1131 ng/mL and 825 ng/mL and 545 ng/mL"}, {"measurement": "Plasma concentration, Final (individual sample)", "setting": "plasma, 30 min, individual animals", "value": "543 ng/mL and 519 ng/mL and 1140 ng/mL"}, {"measurement": "Plasma concentration, Final (individual sample)", "setting": "plasma, 60 min, individual animals", "value": "539 ng/mL and 0 ng/mL and 640 ng/mL"}, {"measurement": "Plasma concentration, Final (individual sample)", "setting": "plasma, 120 min, individual animals", "value": "446 ng/mL and 153 ng/mL and 313 ng/mL"}, {"measurement": "Plasma concentration, Final (individual sample)", "setting": "plasma, 240 min, individual animals", "value": "33.6 ng/mL and 42.0 ng/mL and 17.7 ng/mL"}, {"measurement": "Plasma concentration, Final (individual sample)", "setting": "plasma, 360 min, individual animals", "value": "0 ng/mL and 34 ng/mL"}]}]}
